Measurements published in US20150352075A1, “Treatment of Alzheimer's and Cognitive Impairment With Andrographolides” (INNOBIOSCIENCE, LLC, priority 2013, published 2015).

Tested on: Wnt/β-catenin pathway in cultured rat hippocampal neurons
Test: Wnt/β-catenin pathway activation in cultured hippocampal neurons (western blot, immunofluorescence)
Type: cell-based
Protocol: Primary culture of rat hippocampal neurons. Rat hippocampal cultures were prepared as previously described (Arrazola et al, 2009). On day 3 of culture, hippocampal cells were treated with […] 1-b-Darabinofuranosylcytosine (AraC) during 24 h to reduce the number of proliferating non-neuronal cells. […] PCR-ARRAY. RNA from hippocampal neurons was extracted using Trizol. Quantification and purity of RNA preparations were checked by absorbance using Nanodrop ND-2000. Only preparations with a 260/280 nm ratio ≧1.8, a 260/230 nm ratio ≧1.7 and no sign of RNA degradations, verified by agarose gel electrophoresis with Gel Red™ were used. Genomic DNA was degraded. Using RT2First-Strand cDNA Synthesis kit (SuperArray), 1 ng total RNA was reverse transcribed and then real-time PCR was performed by adding cDNA directly to PCR Master Mix, containing SYBR Green and ROX. The mixtures were then aliquoted into a 96-well PCR array plates, which profiles the expression of 84 Wnt target genes from rat. The PCR was run on ABI StepOnePlus, with 1 cycle of 10 min at 95° C. followed by 40 cycles of 15s at 95° C. and 1 min at 60° C. Cycle threshold (Ct) values were calculated for all the genes present on the array (Schmittgen & Livak, 2008). Treatment of neuronal cultures. Primary hippocampal cultures of neurons 14 DIV were washed twice in neurobasal medium and maintained for 1 hour. Next ANDRO (10 μM) and 6-BIO (10 μM) were added to different time periods.
Following a time-course treatment, neurons were washed with cold PBS and harvested in 600 μL of cold homogenization buffer (10 mM HEPES pH 7.9; 1.5 mM MgCl2; 10 mM KCl; 1 mM DTT). The cells were disrupted by 20 passed, back and forth, through a syringe of 1mL. Lysates were centrifuged for 6 minutes at 700 g at 4° C. and the supernatant was removed. The precipitate was washed in 100 μL of buffer (20 mM HEPES pH=7.9; 420 mM NaCl; 1.5 mM MgCl2; 0.2 mM EDTA; 1 mM DTT; 25% glicerol) and centrifuged again to generate nuclear fraction. Cytosolic fractions were generated from the supernatantat 100.000 g […] 4° C. Both buffers were supplemented with protease inhibitors and serine-phosphatase. Nuclear and cytosolic fractions were subsequently subjected to western blotting.
The samples were dissected on ice and immediately frozen in liquid nitrogen or processed has previously detailed (Inestrosa et al, 2011). Briefly, tissues were homogenized in RIPA buffer (10 mM Tris-Cl, pH 7.4, EDTA 5 mM, 1% NP-40, 1% sodium deoxycholate, and 1% SDS) supplemented with a protease inhibitor mixture (1 mM PMSF, 2 μg/mL aprotinin, 1 μg/mL pepstatin and 10 μg/mL benzamidine) and phosphatase inhibitors (25 mMNaF, 100 mM Na3VO4, 1 mM EDTA and 30 μM Na4P207) using a Potter homogenizator and then passed sequentially through different caliber syringes. Protein samples were centrifuged at 14000 rpm at 4° C. twice for 15 min. Protein concentration was determined using the BCA Protein Assay Kit (Pierce). Samples were resolved by […] 10% SDS-PAGE and transferred to a PVDF membrane. The reactions were followed by incubation with anti-mouse, anti-goat or anti-rabbit IgG peroxidase conjugated (Pierce, Rockford, Ill.) and developed using an ECL kit (Western Lightning Plus ECL, PerkinElmer).
Hippocampal neurons were seeded onto poly-L-lysine-coated cover slips in 24-well culture plates at a density of 5×10^4 cells per well, as described previously (Arrazola et al, 2009; Chacon et al, 2008). A mouse monoclonal anti-b-catenin was used. Cells were extensively washed with PBS and then incubated with Alexa 488-conjugated anti-mouse IgG for 1 h at room temperature. Cells were mounted in mounting medium and analyzed in a Carl-Zeiss Confocal Laser Microscope.

[1] = hippocampal neurons, ANDRO 10 μM
[2] = hippocampal neurons, different concentrations for 6 h

C=C1CC[C@@H]2C(C)(CO)C(O)CC[C@@]2(C)C1C/C=C1/C(=O)OCC1O (stereo in doubt) [ANDRO, 3-(2-(Decahydro-6-hydroxy-5-(hydroxymethyl)-5,8a-dimethyl-2-methylenenaphthyl)ethylidene)dihydro-4-hydroxyfuran-2(3H)-one]
β-catenin levels by immunofluorescence (5 μM for 6 h, neurons at 14 DIV): increased β-catenin levels
time of maximum increase of the inhibited form of GSK-3β [1]: 6 h
time of peak accumulation of cytoplasmic and nuclear β-catenin [1]: 9 h
accumulation of β-catenin [2]: accumulation of β-catenin in a concentration-dependent manner
active form of GSK-3β (phospho-Tyr-216) [2]: decrease in the active form (phosphor-Tyr-216)
inhibited form of GSK-3β (phospho-Ser-9) [2]: increase in the inhibited form of the enzyme (phospho-Ser-9)
